Measured values from patent US11198692B2, “Dihydro-pyrrolo-pyridine derivatives” (Pfizer Inc., priority 2017, dated 2021).

Target: T1, Human M4 receptors (Homo sapiens, UniProt P08173)
T1 construct: expressed in transfected cells
T1 sequence (P08173 1-479): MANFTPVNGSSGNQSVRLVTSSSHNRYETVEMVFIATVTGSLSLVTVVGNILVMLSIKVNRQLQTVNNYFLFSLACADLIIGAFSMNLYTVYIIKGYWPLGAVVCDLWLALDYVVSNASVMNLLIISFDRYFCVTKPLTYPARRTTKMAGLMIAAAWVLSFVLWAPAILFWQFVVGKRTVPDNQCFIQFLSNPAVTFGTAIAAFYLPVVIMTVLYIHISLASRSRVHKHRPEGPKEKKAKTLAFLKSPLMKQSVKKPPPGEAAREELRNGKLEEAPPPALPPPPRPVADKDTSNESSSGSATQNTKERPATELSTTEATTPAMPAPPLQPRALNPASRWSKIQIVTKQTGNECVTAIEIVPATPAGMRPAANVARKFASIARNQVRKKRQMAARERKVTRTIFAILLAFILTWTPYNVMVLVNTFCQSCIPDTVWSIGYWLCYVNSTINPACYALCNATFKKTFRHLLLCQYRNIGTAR
Experiment: M4 PAM cAMP assay (GloSensor)
Assay type: cell-based
Details: HEK293 GloSensor cells expressing hM4, with EC20 acetylcholine and isoproterenol, geometric mean of 2-4 determinations unless footnoted (b: >=5, c: single); for Emax / EC50 Mean Asymptote Maximum (%): Emax = maximum asymptote of fitted dose response curve; for Emax: read-out: EC50 Mean Asymptote Maximum (%)
Procedure, shortened: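 hM4-expressing HEK293 GloSensor cells were equilibrated 2 h at RT with GloSensor reagent, then given compound with EC20 acetylcholine and isoproterenol (EC80) for 10 min at RT before reading. Effect normalised to 10 μM acetylcholine and DMSO; 10-point duplicate curves fitted 4-parameter for EC50 and Emax (top asymptote).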

SMILES: CNc1nc(C)c(C)c2c1CN(C(=O)CC1CN(c3ccnc(C(F)(F)F)c3)C1)C2 [Example 34, 1-[6,7-dimethyl-4-(methylamino)-1,3-dihydro-2H-pyrrolo[3,4-c]pyridin-2-yl]-2-{1-[2-(trifluoromethyl)pyridin-4-yl]azetidin-3-yl}ethanone]
- Emax: 95.9%
- EC50: 1.3 nM

SMILES: CNc1nc(C)c(C)c2c1CN(C(=O)CC1CN(c3ccncn3)C1)C2 [Example 23, 1-[6,7-dimethyl-4-(methylamino)-1,3-dihydro-2H-pyrrolo[3,4-c]pyridin-2-yl]-2-[1-(pyrimidin-4-yl)azetidin-3-yl]ethanone]
- Emax: 95.9%
- EC50: 1.44 nM

SMILES: Cc1[nH]c(=O)c2c(c1C)CN(C(=O)CC1CN(c3cccnc3)C1)C2 [Example 21, 6,7-dimethyl-2-{[1-(pyridin-3-yl)azetidin-3-yl]acetyl}-1,2,3,5-tetrahydro-4H-pyrrolo[3,4-c]pyridin-4-one]
- Emax: 99.7%
- EC50: 8.72 nM

SMILES: CNc1nc(C)c(C)c2c1CN(C(=O)C[C@@H]1C[C@H]1c1ccc(F)nc1)C2 (single isomer, unassigned) [Example 16, 1-[6,7-dimethyl-4-(methylamino)-1,3-dihydro-2H-pyrrolo[3,4-c]pyridin-2-yl]-2-[trans-2-(6-fluoropyridin-3-yl)cyclopropyl]ethanone]
- EC50 Mean Asymptote Maximum (%): 102^b %
- EC50: 0.838 nM

SMILES: CNc1nc(C)c(C)c2c1CN(C(=O)CC1CN(c3ccnc(OC(F)F)c3)C1)C2C (single isomer, unassigned) [Example 49, 2-{1-[2-(difluoromethoxy)pyridin-4-yl]azetidin-3-yl}-1-[1,6,7-trimethyl-4-(methylamino)-1,3-dihydro-2H-pyrrolo[3,4-c]pyridin-2-yl]ethanone]
- EC50 Mean Asymptote Maximum (%): 140^c %
- EC50: 754 nM

SMILES: CNc1nc(C)c(C)c2c1CN(C(=O)OC1CN(c3cccnc3)C1)C2 [Example 5, 1-(Pyridin-3-yl)azetidin-3-yl 6,7-dimethyl-4-(methylamino)-1,3-dihydro-2H-pyrrolo[3,4-c]pyridine-2-carboxylate]
- Emax: 96.8%
- EC50: 1.22 nM
